No end group written: not given here.
Tests used:
[1] = target: T1, His-tagged AGO2 recombinant protein (Homo sapiens, UniProt Q9UKV8); assay: PepSpot high-throughput peptide tiling array; assay type: binding; conditions: 27 peptides of MSI1 C-terminus
T1 construct: made in house; host or cells: High Five insect cells (baculovirus, Bac-To-Bac; virus made in Sf9)
Description: (§1) The relative orientation of peptide-binding site and AGO2 pocket was depicted. […] The recombinant AGO2 protein was immobilized on CM5 chip and incubated with a serial dilution (from 625 to 10000 nM) of the two peptides, respectively. The association and dissociation between TAT-11, TAT-26 and immobilized AGO2 were tested by SPR (top). The association rate constant (Ka), dissociation rate constant (Kd), and equilibrium dissociation constant (KD) were calculated and presented in the chart (bottom).
To rapidly screen the putative binding hotspots along the C-terminus of MSI1, we mimicked the epitope screening method by dotting the synthetic short peptides on nitrocellulose membrane and incubated with purified AGO2 protein^39. The C-terminus of MSI1 (201-262) was divided into 27 individual synthetic peptides with N-terminal amine attached on the nitrocellulose. Each peptide is 15 amino acids in length and has […] overlapping with the previous neighboring peptide (Suppl. Table IV). The purchased PepSpot membrane (JPT peptide technologies, Berlin, Germany) was firstly rinsed by methanol for 5 minutes, followed by Tris buffer saline supplemented with 0.1% Tween-20 (TBS-T) washing thrice. […]

[2] = target: T1, His-tagged AGO2 recombinant protein; assay: Affinity measurement by surface plasmon resonance (SPR); assay type: binding; conditions: AGO2 immobilized on CM5 chip; peptide serial dilution 625 to 10000 nM; Langmuir 1:1 model; read-out: equilibrium dissociation constant (KD)
Description: as §1
A Biacore T200 (GE Healthcare) was used to study the binding affinity of the TAT-11 and TAT-26 peptides with recombinant His-tagged AGO2 protein. The recombinant His-AGO2 and TAT peptides were diluted in HBS-P buffer ([…], 150 mM NaCl and 0.005% P20, pH 7.4). To evaluate the binding affinity, recombinant His-AGO2 was immobilized on a CM5 sensor chip (GE Healthcare, BR100012) via amine coupling (˜7000 RU) for 3600 sec at rate of 5 μl/mins, followed by dissociation for 600 s. After injection of each peptide, the surface was regenerated with an injection of 10 mM NaOH. All sensorgrams were double referenced by subtracting the surface effect from the control flow […] and the buffer effect form the blank buffer. The kinetic values Ka, Kd and KD were obtained using Biacore […] Evaluation Software (GE healthcare) assuming the Langmuir 1:1 binding model.

[3] = system: MSI1/AGO2 downstream mRNA; assay: qRT-PCR of downstream mRNA targets of MSI1-AGO2, hypoxia versus normoxia; assay type: cell-based, human; conditions: six targets
Description: FIG. 4A provides a schematic illustrating the full-length and C-terminal (C-term) fragment of human MSI1. The construct of MSI1 C-term was sub-cloned into p-3×Flag-Myc-CMV expression vector. […] Quantification of the fold changes of binding signals was performed by normalizing IP signals to IgG-precipitated controls. The peaks indicated MSI1 or AGO2 palindromic-binding sequence. […] Purified total RNA was subjected to RT-PCR using primers specific for NF2, TP53, CDKN1A, CCND1, CDK4, and HELLS. The mRNA levels under hypoxia were normalized with that under normoxia and presented as relative fold changes in the chart. […] The relative fold change of the number of viable cells in each day was presented in the graph. […] Xenograft tumor size was monitored from day 2 after injection of Flag-control or Flag-C-term. […] Tumor size was then monitored for 22 days. The expression of MIS1-C-term in the xenograft tumor tissue was assessed by Western blot. […] […]
Oligonucleotide specificity was computer tested (BLAST, National Center for Biotechnology Information. Bethesda. Md., USA) by homology search with the human genome and later confirmed by melting curve analysis. […] Signals were detected using 7900HT Fast Real-time PCR system (Applied Biosystems, Foster City, Calif., USA). […]

[4] = in vitro; conditions: human
Description: (§2) After 0.5, 1, 2, 4 and 6 hours, cell lysates were collected and the fluorescent intensity was detected by ELISA reader. N=3 at each time point. […] Cells were washed and observed under microscopy at the indicated time points. […] To facilitate comparison of intake and degradation dynamics, mean fluorescence values were normalized to stating fluorescence. All data represent three independent experiments.

[5] = target: T2, MSI1/AGO2 interaction (Homo sapiens, UniProt Q9UKV8); assay: Co-immunoprecipitation of endogenous MSI1 and AGO2 under hypoxia; assay type: cell-based; parameters: endogenous in cells; conditions: 10 μM peptide, hypoxic condition
[6] = target: T2, MSI1/AGO2 interaction; assay: Split Gaussia luciferase reconstitution reporter assay; assay type: cell-based; parameters: expressed in transfected cells; lysates used for the in vitro read-out; conditions: 10 μM peptide; in vitro and in vivo
Description: as §1
FIG. 14A provides schematic presentation of the constructs of full-length, C-terminus, and N-terminus of MSI1 as well as wild-type AGO2 for purifying recombinant proteins. FIG. 14B provides pull-down assay with recombinant MSI1 and AGO2 proteins showing that the C-terminus of MSI1 is essential for the direct MSI1/AGO2 interaction. […] FIG. 14D provides the schematic illustration of the split luciferase reconstitution imaging system to real-time monitor the interaction between MSI1 and AGO2.
To use Gaussia luciferase (Gluc) for detecting protein-protein interaction, we split Gaussia luciferase into NGluc (N-terminal Gluc, 106 a.a.) and CGluc (C-terminal Glue. 79 a.a.)^53,54. The two fragments were amplified by polymerase chain reaction (PCR) and subjected to construct fusion protein with MSI1 and AGO2 by the pcDNA 3.1 and pCMV backbone, respectively. Each fusion protein contains a flexible linker (GGGGS)2 between the protein and polypeptides of split luciferase^55,56. Stable cell lines were obtained by stable transfection of both fusion protein expressive plasmids in 05 MG GBM cell line with Hygromycin B (Sigma Aldrich Co., St. Louis, […]., USA) and G418 sulfate (Merck Co., Berlin, Germany). […] The bioluminescent signals were acquired by Wallac 1420 Victor^2 Microplate Reader (Perkin Elmer, Waltham. Mass., USA) equipped with auto-dispenser to avoid rapid decay of GLuc. […] The region of interests (ROI) was automatically chosen by the Living Image 4.2 software and quantified as photon flux in a certain area per second (photons/s/cm^2).

[7] = system: 05 MG cells; assay: Cellular uptake of fluorescein labeled peptides, fluorescence read by ELISA reader; conditions: for time to significant cellular uptake: 05 MG cells; for EC50: read-out: half-uptake concentration (EC50), fluorescein labeled peptides, 05 MG cell line
Description: The biological activity of peptides was tested in 05 MG cell line. The cells were treated with different concentration of fluorescein labeled peptides and was measured using ELISA reader.
as §2

[8] = system: MSI1 translocation into the cytosol in 05 MG cells; assay: MSI1 subcellular translocation (immunostaining, fractionation immunoblot); assay type: cell-based, human; conditions: LMB 10 ng/mL, 2 h pre-treatment; hypoxic and cisplatin treatment
Description: Magnifying power: 200× (top) and 600× (bottom). Quantitation of cells expressing cytoplasmic or nuclear MSI1 is shown in the bar graph on the right. FIG. 1B 05 MG cells pre-treated with or without nuclear export inhibitor leptomycinB (LMB) (10 ng/mL, 2 h) under normoxia or hypoxia conditions for 24 hr were subjected to anti-MSI1 (green) immunostaining and DAPI (blue) nuclear counterstaining. Images were acquired from Carl Zeiss confocal microscope system. The intensity of green fluorescence in nuclear and cytosol was quantified and shown as relative percentage in the graph at the right. […] FIG. 1D provides a schematic showing the mutation sites in the NLS (orange) and NES (red) of human MSI1. All constructs were sub-cloned into p-3×Flag-Myc-CMV expression vector. […] Images were acquired from Carl Zeiss confocal microscope system, and the quantification of fluorescent intensity in the nuclear and cytosolic compartments was shown as relative percentage in the graph at the left. […] Tumor size was measure with a caliper at the indicated time points. […] The tumor size was measured with a caliper at the indicated time points. […]
The ratio of MSI1 expression in each group was presented in the graph. […] Hypoxia-induced apoptosis was withdrawn by the over-expression of wild-type MSI1 but not in mutant MSI1 groups determined by annexin V staining, MTT assay, and colony forming assay. […]

T2 sequence (Q9UKV8 whole entry): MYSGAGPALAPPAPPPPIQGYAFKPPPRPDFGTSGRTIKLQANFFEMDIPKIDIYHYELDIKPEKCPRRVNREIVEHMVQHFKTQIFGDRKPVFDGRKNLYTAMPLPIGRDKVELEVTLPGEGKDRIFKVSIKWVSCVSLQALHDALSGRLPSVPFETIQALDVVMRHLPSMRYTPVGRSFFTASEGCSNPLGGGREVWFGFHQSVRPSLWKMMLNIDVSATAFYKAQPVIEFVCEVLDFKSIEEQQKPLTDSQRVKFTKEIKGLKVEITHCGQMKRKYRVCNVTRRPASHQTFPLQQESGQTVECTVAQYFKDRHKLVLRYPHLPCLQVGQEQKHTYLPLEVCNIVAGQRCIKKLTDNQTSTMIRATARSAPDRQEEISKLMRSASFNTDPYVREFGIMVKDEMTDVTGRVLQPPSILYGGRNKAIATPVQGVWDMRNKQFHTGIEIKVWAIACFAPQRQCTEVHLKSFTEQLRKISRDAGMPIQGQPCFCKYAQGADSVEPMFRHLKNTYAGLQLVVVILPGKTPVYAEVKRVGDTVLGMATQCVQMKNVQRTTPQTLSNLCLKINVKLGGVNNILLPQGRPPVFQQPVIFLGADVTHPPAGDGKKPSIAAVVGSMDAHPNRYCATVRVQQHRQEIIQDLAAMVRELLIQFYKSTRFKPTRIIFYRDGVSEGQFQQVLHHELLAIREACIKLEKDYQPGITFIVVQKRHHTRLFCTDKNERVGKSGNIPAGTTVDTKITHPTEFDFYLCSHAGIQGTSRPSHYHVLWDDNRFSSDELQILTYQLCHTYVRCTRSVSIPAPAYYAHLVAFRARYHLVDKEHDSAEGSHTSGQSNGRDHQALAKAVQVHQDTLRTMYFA
T1 sequence (Q9UKV8 whole entry): as above

Molecule	binding of recombinant AGO2 to arrayed peptide [1]	Kd [2] [µM]	effect of MSI1/AGO2 binding on downstream mRNA [3]	half-life [4] [h]	effect on MSI1/AGO2 interaction (co-IP immunoblot) [5]	effect on bioluminescent signal of split Gaussia luciferase [6]	time to significant cellular uptake [7]	EC50 [7] [µM]	MSI1 translocation into the cytosol [8]
HSLGGPLIATAFTNG [compound 26]	preferentially bound								
YQFPEFRVERTPLPSGRKKRRQRRRPPQ [TAT-11]		3.33	reversed	≤ 4	effectively abrogated the MSI1/AGO2 interaction	dramatically turned down the bioluminescent signal in vitro and in vivo	within one hour	9.1	
YQFPEFRVERTPLPS [compound 11]	preferentially bound								
HSLGGPLIATAFTNGGRKKRRQRRRPPQ [TAT-26]		4.63	reversed	≤ 4	effectively abrogated the MSI1/AGO2 interaction	dramatically turned down the bioluminescent signal in vitro and in vivo	within one hour	9.02	
CCC(=C/[C@H](C)C/C=C/C(C)=C/[C@@H](C)C(=O)[C@@H](C)[C@H](O)[C@@H](C)C/C(C)=C/C(=O)O)/C=C/[C@@H]1OC(=O)C=C[C@@H]1C [Leptomycin B]									strongly reduced MSI1 translocation into the cytosol

Reference: patent publication US11364280B2, “Method for blocking stress-induced tumor progression” (Taipei Veterans General Hospital, priority 2018, dated 2022)
